# From ChEMBL document CHEMBL1201862, “PubChem BioAssay data set” (2004)
#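 Results reflect a 48-hour exposure of cells in 96-well plates to compound at five concentrations. Abbreviation: GI50, concentration required for 50% inhibition of growth.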 The source made the active and inactive calls. Rule as the data show it: active = GI50 up to about 1.1 µM and inactive = higher.
# What was measured:
# Assay in all cases: NCI tumour cell line growth inhibition, 48 h
# RPMI-8226 = test system: RPMI-8226
# NCI-H522 = test system: NCI-H522
# SW-620 = test system: SW-620
# 786-0 = test system: 786-0
# CCRF-CEM = test system: CCRF-CEM
# SR = test system: SR
# UACC-257 = test system: UACC-257
# SF-295 = test system: SF-295
# M14 = test system: M14
# SNB-19 = test system: SNB-19
# NCI-H460 = test system: NCI-H460
# HCC 2998 = test system: HCC 2998
# EKVX = test system: EKVX
# SK-MEL-2 = test system: SK-MEL-2
# NCI/ADR-RES = test system: NCI/ADR-RES
# LOX IMVI = test system: LOX IMVI
# OVCAR-8 = test system: OVCAR-8
# TK-10 = test system: TK-10
# SK-MEL-5 = test system: SK-MEL-5
# SF-539 = test system: SF-539
SMILES,GI50 (RPMI-8226),GI50 (NCI-H522),GI50 (SW-620),GI50 (786-0),GI50 (CCRF-CEM),GI50 (SR),GI50 (UACC-257),GI50 (SF-295),GI50 (M14),GI50 (SNB-19),GI50 (NCI-H460),GI50 (HCC 2998),GI50 (EKVX),GI50 (SK-MEL-2),GI50 (NCI/ADR-RES),GI50 (LOX IMVI),GI50 (OVCAR-8),GI50 (TK-10),GI50 (SK-MEL-5),GI50 (SF-539)
c1ccc(CCN2CCOCC2)nc1,> 100 µM (inactive),> 100 µM (inactive),> 100 µM (inactive),> 100 µM (inactive),> 100 µM (inactive),> 100 µM (inactive),> 100 µM (inactive),> 100 µM (inactive),> 100 µM (inactive),> 100 µM (inactive),> 100 µM (inactive),> 100 µM (inactive),> 100 µM (inactive),> 100 µM (inactive),> 100 µM (inactive),> 100 µM (inactive),> 100 µM (inactive),> 100 µM (inactive),> 100 µM (inactive),
OCC1CCCC(n2cnc3c(S)ncnc32)O1 (centres undefined),> 100 µM (inactive),> 100 µM (inactive),> 100 µM (inactive),> 100 µM (inactive),,> 100 µM (inactive),> 100 µM (inactive),> 100 µM (inactive),> 100 µM (inactive),> 100 µM (inactive),> 100 µM (inactive),> 100 µM (inactive),> 100 µM (inactive),> 100 µM (inactive),> 100 µM (inactive),> 100 µM (inactive),> 100 µM (inactive),> 100 µM (inactive),> 100 µM (inactive),
Cc1ccc(S(=O)(=O)NC(=O)C2=C3SCCN3C(=O)N(S(=O)(=O)c3ccc(C)cc3)C2c2ccccc2)cc1 (centres undefined),26.7 µM (inactive),20.4 µM (inactive),47.3 µM (inactive),51.9 µM (inactive),19.4 µM (inactive),31.4 µM (inactive),78.5 µM (inactive),31.5 µM (inactive),61 µM (inactive),34.8 µM (inactive),71.1 µM (inactive),12.2 µM (inactive),> 100 µM (inactive),46.8 µM (inactive),> 100 µM (inactive),39.4 µM (inactive),77.1 µM (inactive),> 100 µM (inactive),,25.6 µM (inactive)
O=C(NCC(O)COc1ccccc1)c1ccccc1O (centres undefined),> 100 µM (inactive),55.6 µM (inactive),> 100 µM (inactive),> 100 µM (inactive),40.5 µM (inactive),87.7 µM (inactive),> 100 µM (inactive),> 100 µM (inactive),> 100 µM (inactive),91 µM (inactive),,> 100 µM (inactive),> 100 µM (inactive),> 100 µM (inactive),58.6 µM (inactive),> 100 µM (inactive),> 100 µM (inactive),> 100 µM (inactive),63.5 µM (inactive),> 100 µM (inactive)
COc1ccc(-c2nc(-c3cnccn3)n(C3OC(CO)C(O)C(O)C3O)n2)cc1 (centres undefined),> 100 µM (inactive),> 100 µM (inactive),> 100 µM (inactive),> 100 µM (inactive),> 100 µM (inactive),> 100 µM (inactive),> 100 µM (inactive),> 100 µM (inactive),> 100 µM (inactive),> 100 µM (inactive),> 100 µM (inactive),> 100 µM (inactive),> 100 µM (inactive),,> 100 µM (inactive),> 100 µM (inactive),> 100 µM (inactive),> 100 µM (inactive),> 100 µM (inactive),> 100 µM (inactive)
c1ccc(/C(=N/Nc2cnccn2)c2ncccn2)cc1,> 100 µM (inactive),14.9 µM (inactive),41.1 µM (inactive),81.3 µM (inactive),28 µM (inactive),12.9 µM (inactive),> 100 µM (inactive),> 100 µM (inactive),78.2 µM (inactive),> 100 µM (inactive),> 100 µM (inactive),> 100 µM (inactive),18.2 µM (inactive),> 100 µM (inactive),83.2 µM (inactive),,46 µM (inactive),,39.9 µM (inactive),> 100 µM (inactive)
CCOC(=O)C1CCC(=O)N1C(=O)c1ccc(Cl)cc1 (centres undefined),> 100 µM (inactive),> 100 µM (inactive),> 100 µM (inactive),> 100 µM (inactive),> 100 µM (inactive),> 100 µM (inactive),> 100 µM (inactive),> 100 µM (inactive),> 100 µM (inactive),> 100 µM (inactive),> 100 µM (inactive),> 100 µM (inactive),> 100 µM (inactive),,> 100 µM (inactive),> 100 µM (inactive),> 100 µM (inactive),,> 100 µM (inactive),> 100 µM (inactive)
CC(=O)NNC1=NN(C(C)=O)C2(S1)C(=O)Nc1ccccc12 (centres undefined),> 100 µM (inactive),> 100 µM (inactive),> 100 µM (inactive),> 100 µM (inactive),> 100 µM (inactive),> 100 µM (inactive),> 10 µM (inactive),,> 100 µM (inactive),> 100 µM (inactive),> 100 µM (inactive),> 100 µM (inactive),> 100 µM (inactive),> 100 µM (inactive),> 100 µM (inactive),> 100 µM (inactive),> 100 µM (inactive),> 100 µM (inactive),> 100 µM (inactive),> 100 µM (inactive)
CC(C)=CC1C(C(=O)Oc2ccccc2C(C)C)C1(C)C (centres undefined),19.3 µM (inactive),16.6 µM (inactive),24.3 µM (inactive),19.9 µM (inactive),22.8 µM (inactive),20.9 µM (inactive),19.5 µM (inactive),17.7 µM (inactive),31.6 µM (inactive),34.3 µM (inactive),22.4 µM (inactive),17.8 µM (inactive),17.3 µM (inactive),17.1 µM (inactive),30 µM (inactive),17.7 µM (inactive),31.7 µM (inactive),32.8 µM (inactive),18.2 µM (inactive),
COC(=O)/C=C(/C)n1nc2ccccc2n1,22.4 µM (inactive),> 100 µM (inactive),> 100 µM (inactive),> 100 µM (inactive),> 100 µM (inactive),> 100 µM (inactive),> 100 µM (inactive),> 100 µM (inactive),> 100 µM (inactive),> 100 µM (inactive),> 100 µM (inactive),> 100 µM (inactive),37.7 µM (inactive),> 100 µM (inactive),> 100 µM (inactive),,> 100 µM (inactive),> 100 µM (inactive),> 100 µM (inactive),
N#Cc1ccc2oc3ccc(C#N)cc3c(=O)c2c1,23.2 µM (inactive),58.2 µM (inactive),51.5 µM (inactive),25.8 µM (inactive),31.8 µM (inactive),41.6 µM (inactive),> 100 µM (inactive),22.9 µM (inactive),> 100 µM (inactive),27.9 µM (inactive),18.6 µM (inactive),58.2 µM (inactive),,19.6 µM (inactive),> 100 µM (inactive),,> 100 µM (inactive),24.3 µM (inactive),5.6 µM (inactive),21.3 µM (inactive)
CC(NCc1c(O)ccc2c(-c3ccccc3)cc(=O)oc12)C(=O)O (centres undefined),> 100 µM (inactive),> 100 µM (inactive),> 100 µM (inactive),> 100 µM (inactive),> 100 µM (inactive),> 100 µM (inactive),> 100 µM (inactive),> 100 µM (inactive),> 100 µM (inactive),> 100 µM (inactive),> 100 µM (inactive),> 100 µM (inactive),> 100 µM (inactive),> 100 µM (inactive),> 100 µM (inactive),> 100 µM (inactive),> 100 µM (inactive),> 100 µM (inactive),> 100 µM (inactive),> 100 µM (inactive)
CC(O)c1cc2c(s1)C(=O)c1scc(C(C)O)c1C2=O (centres undefined),0.579 µM (active),0.628 µM (active),0.321 µM (active),2.07 µM (inactive),1.18 µM (inactive),0.271 µM (active),0.176 µM (active),0.168 µM (active),0.19 µM (active),0.667 µM (active),0.757 µM (active),1.66 µM (inactive),0.991 µM (active),0.224 µM (active),0.283 µM (active),0.172 µM (active),0.286 µM (active),1.69 µM (inactive),0.156 µM (active),0.23 µM (active)
Oc1cc(-c2cccc(Cl)c2)nc2cc3c(cc12)OCO3,0.498 µM (active),0.334 µM (active),0.351 µM (active),0.294 µM (active),0.519 µM (active),0.342 µM (active),0.366 µM (active),,0.179 µM (active),0.726 µM (active),0.274 µM (active),1.31 µM (inactive),,0.207 µM (active),0.208 µM (active),0.305 µM (active),0.647 µM (active),6.31 µM (inactive),0.13 µM (active),0.257 µM (active)
NC(=O)CC[C@H]1C(=O)N=C(N)N1C(=O)OCc1ccccc1,> 100 µM (inactive),> 100 µM (inactive),> 100 µM (inactive),> 100 µM (inactive),,> 100 µM (inactive),> 100 µM (inactive),> 100 µM (inactive),,> 100 µM (inactive),> 100 µM (inactive),> 100 µM (inactive),> 100 µM (inactive),> 100 µM (inactive),> 100 µM (inactive),> 100 µM (inactive),> 100 µM (inactive),> 100 µM (inactive),> 100 µM (inactive),
